In article PMC11465516, “Kinetic and Structural Studies of the Plastidial Solanum tuberosum Phosphorylase” (ACS Omega, 2024):
Like-named read-outs stand apart in the source and are kept apart here.

Assays:
[1] = molecular target: T1, stPho1 (plastidial Solanum tuberosum phosphorylase) (Solanum tuberosum, UniProt P04045); assay: stPho1 enzyme kinetics in the direction of glycogen synthesis; type: biochemical
T1 construct: stPho1 was purified from a natural source; from tissue; host or cells: Solanum tuberosum mature tubers
T1 sequence (P04045 51-966): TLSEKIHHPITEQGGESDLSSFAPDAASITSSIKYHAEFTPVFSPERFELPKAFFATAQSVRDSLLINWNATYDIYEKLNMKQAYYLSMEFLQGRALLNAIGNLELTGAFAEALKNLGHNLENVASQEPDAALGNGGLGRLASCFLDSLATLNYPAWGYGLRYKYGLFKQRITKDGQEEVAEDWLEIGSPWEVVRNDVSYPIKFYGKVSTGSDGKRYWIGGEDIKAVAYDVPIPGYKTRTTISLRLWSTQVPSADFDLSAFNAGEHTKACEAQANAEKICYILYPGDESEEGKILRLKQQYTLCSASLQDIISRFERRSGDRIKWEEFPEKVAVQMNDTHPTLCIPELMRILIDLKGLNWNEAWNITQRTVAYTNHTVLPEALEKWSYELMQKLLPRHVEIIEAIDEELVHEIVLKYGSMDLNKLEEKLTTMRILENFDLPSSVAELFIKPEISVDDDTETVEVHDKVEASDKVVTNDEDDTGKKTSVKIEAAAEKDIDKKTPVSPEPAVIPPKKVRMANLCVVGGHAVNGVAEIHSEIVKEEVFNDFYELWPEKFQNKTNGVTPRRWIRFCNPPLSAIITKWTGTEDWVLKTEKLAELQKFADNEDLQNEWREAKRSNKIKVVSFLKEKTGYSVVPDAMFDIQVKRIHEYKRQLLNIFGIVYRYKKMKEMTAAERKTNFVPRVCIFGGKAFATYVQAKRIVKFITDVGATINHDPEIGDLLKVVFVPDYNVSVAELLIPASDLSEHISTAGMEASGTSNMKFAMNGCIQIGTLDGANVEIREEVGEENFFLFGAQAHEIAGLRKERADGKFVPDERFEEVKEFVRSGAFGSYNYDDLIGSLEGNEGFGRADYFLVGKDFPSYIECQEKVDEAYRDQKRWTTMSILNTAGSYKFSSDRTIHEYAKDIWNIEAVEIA
Source text: (§1) In vitro, stPho1 can perform the reverse reaction in the presence of higher concentrations of Glc-1-P, where the enzyme adds glucose residues on glucans with direct release of orthophosphate ions, which can then be measured spectrophotometrically using the method of Saheki et al.[47] Starch granules are composed of two distinct glucose polymers, amylose and amylopectin.[48] Amylopectin is the major polymer in starch and has α-1,4-linked glucose chains with α-1,6-linked branches every 24–30 glucose units, whereas amylose is composed of long α-1,4-linked linear chains. Kinetic studies were performed using glycogen, whose structure is very similar to that of amylopectin but with more branches (every 8–12 glucose units) due to better solubility. Enzyme assays were performed at 30 °C in the direction of glycogen synthesis using 30 μg/mL of stPho1 or ΔPho1 in a 20 mM sodium citrate buffer (pH 6.0) containing 60 mM KCl, 0.6 mM ethylenediaminetetraacetic acid (EDTA), and 0.6 mM dithiothreitol, using constant concentrations of glycogen (0.2% w/v) and various concentrations of Glc-1-P (3, 4, 6, 10, and 15 mM for stPho1 and 1, 2, 3, 4, 6 mM for stPho1ΔL78) and inhibitors. Initial velocities were calculated from the pseudo-first-order rate constants (k) using the first-order rate equation ([A] = [A]0e^–kt), where [A]0 and [A] are the initial concentration of the sample and the sample’s concentration at various times, respectively, and t is the corresponding time (min) following a previously established protocol,[54] and the nonlinear regression program GraFit[50] with an explicit value was used for calculating the standard deviation of each point.[49]
(§2) To establish the optimum pH and temperature for enzyme activity, we first measured the enzymatic activity in the 4.5–8.5 pH range. Kinetic studies were performed in the direction of glycogen synthesis using 50 μg/mL of stPho1 using six different buffers (20 mM sodium acetate buffer for pH 4.5 and 5.5, 20 mM sodium citrate buffer for pH 6.0 and 6.5, and 20 mM Tris–HCl for pH 7.5 and 8.5) containing 60 mM KCl, 0.6 mM EDTA, and 0.6 mM dithiothreitol, using constant concentrations of glycogen (0.2% w/v) and Glc-1-P (14 mM) at 30 °C. […] To determine the optimum temperature for the activity, enzymatic assays were performed at temperatures 20, 30, 37, and 45 °C. Kinetic studies were performed in the direction of glycogen synthesis using 50 μg/mL of stPho1 in a 20 mM sodium citrate buffer (pH 6.0) containing 60 mM KCl, 0.6 mM EDTA, and 0.6 mM dithiothreitol, using constant concentrations of glycogen (0.2% w/v) and Glc-1-P (4 mM). […] Since mammalian muscle phosphorylase activity is dependent on the presence of the allosteric activator AMP,[35] we investigated whether the presence of AMP affects the stPho1 enzymatic activity. The effect was tested with 1 mM AMP, using 30 μg/mL of stPho1 in 20 mM sodium citrate buffer (pH 6.0) containing 60 mM KCl, 0.6 mM EDTA, and 0.6 mM dithiothreitol, using a saturating concentration of glycogen (0.2% w/v) and various concentrations of Glc-1-P (3, 6, 10, and 15 mM).

[2] = tested on: rabbit muscle glycogen phosphorylase b (rmGPb); conditions: cited from earlier work
stPho1ΔL78 [3] = molecular target: T2, stPho1ΔL78 (Solanum tuberosum, UniProt P04045); assay: stPho1ΔL78 enzyme kinetics in the direction of glycogen synthesis; type: biochemical
T2 construct: the N-terminal (residues 23–446) and the C-terminal (residues 511–916); from tissue; host or cells: Solanum tuberosum mature tubers; purified stPho1 left about 4 weeks at room temperature to proteolyse
Source text: as §1, §2

rmGPa = molecular target: rmGPa; design: method as in PMID 12930991, PMID 3805034, PMID 624732; conditions: cited from earlier work
mammalian enzyme (GP) = molecular target: mammalian enzyme (GP); design: method as in PMID 32771768; conditions: cited from earlier work
stPho1ΔL78 [4] = assay: stPho1ΔL78 enzyme kinetics in the direction of glycogen synthesis; type: biochemical, Solanum tuberosum; conditions: direction of glycan synthesis
Source text: as §1, §2

[5] = 30 °C, pH 6.0, glycogen 0.2% w/v
[6] = 30 °C, pH 6.0, glycogen 0.2% w/v, read-out: Km Glc-1-P
[7] = 30 °C, pH 6.0, glycogen 0.2% w/v, various Glc-1-P, read-out: Ki

With Nc1ncnc2c1ncn2[C@@H]1O[C@H](COP(=O)(O)O)[C@@H](O)[C@H]1O [AMP] the “Effect on stPho1 enzymatic activity (Vmax, Km)” value ([1]; 1 mM AMP, glycogen 0.2% w/v, Glc-1-P 3-15 mM) was “does not have any effect”.
For O=P(O)(O)O[C@H]1O[C@H](CO)[C@@H](O)[C@H](O)[C@H]1O [Glc-1-P, glucose-1-phosphate], the “Vmax Glc-1-P” value [1, 5] was 0.37 ± 0.01 µmol/min/mg, the Km [1, 6] was 2300 ± 200 µM and the “Vmax Glc-1-P + 1 mM AMP” value ([1]; + 1 mM AMP, pH 6.0, glycogen 0.2% w/v) was 0.39 ± 0.01 µmol/min/mg. The Km ([1]; read-out: Km Glc-1-P + 1 mM AMP, + 1 mM AMP, pH 6.0, glycogen 0.2% w/v) was 2400 ± 200 µM, the “Vmax Glc-1-P + 1 mM AMP” value ([2]; + 1 mM AMP) was 64[63] μmol/min/mg and the “Vmax Glc-1-P” value [2] was 2.9[63] μmol/min/mg. For the same compound, the Km ([2]; read-out: Km Glc-1-P + 1 mM AMP, + 1 mM AMP) was 9000 µM, the Km ([2]; read-out: Km Glc-1-P) was 28000 µM and the “Vmax Glc-1-P” value (stPho1ΔL78 [3]; [5]) was 0.32 ± 0.02 µmol/min/mg. It also gave a Km (stPho1ΔL78 [3]; [6]) of 1400 ± 200 µM.
For C[C@H]1O[C@H](O[C@H]2[C@H](O)[C@@H](O)[C@@H](O[C@H]3[C@H](O)[C@@H](O)C(O)O[C@@H]3CO)O[C@@H]2CO)[C@H](O)[C@@H](O)[C@@H]1N[C@H]1C=C(CO)[C@@H](O)[C@H](O)[C@H]1O (some centres unmarked) [acarbose], the Ki (rmGPa) is given as 26 mM.
In the case of Cn1c(=O)c2c(ncn2C)n(C)c1=O [caffeine], the Ki ([2]; in the presence of 1 mM AMP) is listed as 0.13 mM.
For O=c1c(O)c(-c2ccc(O)c(O)c2)oc2cc(O)cc(O)c12 [quercetin], the Ki (mammalian enzyme (GP)) is given as 0.032 to 0.069 mM and the “Effect on the enzymatic activity of stPho1” value ([1]; up to a concentration of 1 mM) is given as “did not have any effect”.
In the case of OC[C@H]1O[C@H](O)[C@H](O)[C@@H](O)[C@@H]1O [α-D-glucose], the Ki [1, 7] is given as 42.8 ± 2.6 mM, the Ki ([2]; in the presence of 1 mM AMP) is given as 3.2 mM and the Ki (stPho1ΔL78 [3]; [7]) is given as 38.4 ± 1.5 mM.
In the case of OC[C@H]1O[C@@H]2O[C@H]3[C@H](O)[C@@H](O)[C@@H](O[C@H]4[C@H](O)[C@@H](O)[C@@H](O[C@H]5[C@H](O)[C@@H](O)[C@@H](O[C@H]6[C@H](O)[C@@H](O)[C@@H](O[C@H]7[C@H](O)[C@@H](O)[C@@H](O[C@H]1[C@H](O)[C@H]2O)O[C@@H]7CO)O[C@@H]6CO)O[C@@H]5CO)O[C@@H]4CO)O[C@@H]3CO [α-cyclodextrin], the Ki ([2]; glycogen storage site ligands) is listed as 47.1 mM.
For OC[C@H]1O[C@@H]2O[C@H]3[C@H](O)[C@@H](O)[C@@H](O[C@H]4[C@H](O)[C@@H](O)[C@@H](O[C@H]5[C@H](O)[C@@H](O)[C@@H](O[C@H]6[C@H](O)[C@@H](O)[C@@H](O[C@H]7[C@H](O)[C@@H](O)[C@@H](O[C@H]8[C@H](O)[C@@H](O)[C@@H](O[C@H]1[C@H](O)[C@H]2O)O[C@@H]8CO)O[C@@H]7CO)O[C@@H]6CO)O[C@@H]5CO)O[C@@H]4CO)O[C@@H]3CO [β-cyclodextrin], the Ki [1] is listed as 0.0731 ± 0.0059 mM, the “Binding strength in stPho1 relative to rmGPb” value ([1]; stPho1 forms vs rmGPb) is listed as 200–450 times and the Ki ([2]; in the presence of 1 mM AMP) is listed as 14.1 mM. The Ki (stPho1ΔL78 [3]) was 0.031 ± 0.001 mM.
For OC[C@H]1O[C@@H]2O[C@H]3[C@H](O)[C@@H](O)[C@@H](O[C@H]4[C@H](O)[C@@H](O)[C@@H](O[C@H]5[C@H](O)[C@@H](O)[C@@H](O[C@H]6[C@H](O)[C@@H](O)[C@@H](O[C@H]7[C@H](O)[C@@H](O)[C@@H](O[C@H]8[C@H](O)[C@@H](O)[C@@H](O[C@H]9[C@H](O)[C@@H](O)[C@@H](O[C@H]1[C@H](O)[C@H]2O)O[C@@H]9CO)O[C@@H]8CO)O[C@@H]7CO)O[C@@H]6CO)O[C@@H]5CO)O[C@@H]4CO)O[C@@H]3CO [γ-cyclodextrin], the Ki ([2]; glycogen storage site ligands) is listed as 7.4 mM.
For glycogen, the “Km × 1000 glycogen” value ([1]; 30 °C, pH 6.0) is given as 114.2 ± 7.6%, the “Km × 1000 glycogen” value [2] is given as 12^1[63] % and the “Affinity of stPho1ΔL78 relative to stPho1” value (stPho1ΔL78 [4]) is given as 2 times. For the same compound, the “Km × 1000 glycogen” value (stPho1ΔL78 [3]; 30 °C, pH 6.0) was 60 ± 9%.
In the case of maltoheptaose [maltoheptaose (G7)], the Ki ([2]; glycogen storage site ligands) is listed as 1 mM.
